What was measured:
[1] = tested on: human breast tumour cell line, MCF7; test: Proliferation of MCF7 cells in response to 5% FCS or EGF; assay type: cell-based; settings: for effect on proliferation of MCF7 cells, in words (FIG. 3): 5% FCS or EGF 300 pM
Method: (§1) The effects of 4NO were evaluated in a number of non-smooth muscle cell types including the type II airway epithelial cell line, A549 (ATCC accession number ATCC CCL-185 Lung carcinoma human) (FIG. 2); the human breast tumour cell line, MCF7, (ATTC accession number ATCC HTB-22 breast adenocarcinoma, human) which expresses the estrogen receptor (FIG. 3); and in bovine aortic endothelial cells (BAEC) (FIG. 4).
(§2) The effects of test compounds were examined on proliferation of A549 cells in response to 5% fetal calf serum (FCS). Analogues were pre-incubated with A549 cells for 30 min before the addition of FCS. The incubation continued for 48 h before cell enumeration. Data are expressed as a percentage of the cell number in vehicle treated wells and are presented as the mean and standard error of the mean. Similarly the effects of 2MEO and 4NO on proliferation of MCF7 in response to 5% FCS or epidermal growth factor (EGF, 300 pM) were examined, as were the effects of 2MEO and 4NO on proliferation of BAEC in response to 5% FCS. The incubation parameters were the same as described above and results are presented as the mean and standard error of the mean.
This assay was also used to evaluate the ability of other compounds to inhibit the proliferation of non-smooth muscle cells MCF7 and A549 (described above) in response to 5% FCS. The results of this assay are presented in Table 4 (columns G and H respectively). The potency of the compounds was considerably less in inhibiting proliferation of these cell lines than it was for HASM. These observations support the contention that there are cell type-specific targets for the actions of these compounds. Such assays may also be adopted to examine the effect of other disclosed compounds on these cells or on other non-smooth muscle cells of interest.

[2] = tested on: bovine aortic endothelial cells (BAEC); test: Proliferation of bovine aortic endothelial cells in response to 5% FCS; assay type: cell-based
Method: as §1, §2

[3] = target: colchicine binding site on tubulin; test: Colchicine displacement assay on partially purified tubulin; settings: partially purified lamb brain tubulin, 1 μM 3H colchicine
Method: For the binding assays, a partial purification of tubulin was derived from the polymerization-depolymerization method of Williams and Lee (Williams et al., 1982). Three lamb brains (approximately 150 g total) were obtained approximately fifteen minutes after slaughter. Batches of 100g of brain were homogenized in 50 mL cold PM4M buffer (100 mM piperazine-N,N′-bis[2-ethane sulfonic acid] (PIPES), 1 mM MgSO4, 2 mM ethylene glycol tetra-acetate (EGTA), 2 mM DTT, 4 M glycerol, pH 6.9) using a domestic blender (Power Blender, Ronson) on the highest setting for 30 s. The crude homogenate was centrifuged for 15 mins (9000 rpm (6500×g), 4° C.) and the precipitate (cell debris, extracellular matrix and crude nuclear fraction) discarded. The 6500×g supernatant was then centrifuged for 75 mins (28 000 rpm (96 000×g), 4° C.) and the precipitate (consisting largely of cell membranes) was discarded.
The GTP (guanosine triphosphate) concentration of the 96 000×g supernatant was adjusted to 1 mM by the addition of an appropriate amount of a freshly prepared solution of 50 mM GTP in distilled water. […]
Reaction mixtures were incubated for 30 mins at 37° C. in a water bath, followed by cold stabilization on ice for 1 to 1.5 hours. […] 5 ml “Emulsifier Safe” scintillation fluid (Packard) was added to each tube, and the samples counted in a Packard 1600TR liquid scintillation analyzer.

[4] = tested on: HASM cells; test: PDGF(BB)-induced migration of HASM cells (modified Boyden chamber); assay type: cell-based, human; settings: PDGF(BB) 1 ng/ml, 5 h, 30 min pre-treatment
Method: Costar transwell culture inserts (Corning Inc, USA) with 6.5 mm diameter and […] were coated overnight at 4° C. with 0.1% gelatin (Bovine skin; Sigma, USA) prior to the commencement of the assay (modified Boyden chamber assay). HASM cells were deprived of serum for 24 h prior to the commencement of the assay. Cells were added to the upper side of the transwell inserts with or without 30 min pre-treatment with one of the test compounds. Platelet-derived growth factor(BB) (1 ng/ml) was added to the lower compartment to stimulate cell migration and the chambers and cells left for 5 h. After this period the membranes with the adherent cells were washed with PBS, and fixed for 2 min with DiffQuick (Lab Aids, Aus) fixative and then stained with DiffQuick. Membranes were then washed twice in PBS, peeled off the inserts and placed onto slides. Membranes were visualised by light microscopy, and the number of migrated cells in five fields (×400) were counted in triplicate.
The numbers of HASM appearing on the underside of the porous membrane was counted and the responses were expressed as a percentage of the number of cells migrating in response to PDGF in the absence of pre-treatment.

[5] = tested on: mice (C57BL/6) sensitised to ovalbumin; test: Airway hyperresponsiveness to methacholine in ovalbumin-sensitised mice; assay type: in vivo; settings: ovalbumin-challenged mice; for airway reactivity to intravenous methacholine (change in respiratory resistance) (FIG. 8): 50 mg/kg/day intraperitoneally; for airway reactivity to intravenous methacholine (change in respiratory resistance) (FIG. 9): 50 mg/kg/day orally
Method: Conscious female mice (C57BL/6) of 6-8 weeks of age were sensitised by a 0.2 ml intraperitoneal injection of 50 ug ovalbumin (in 10 mg/ml aluminium hydroxide) on day 0 and 12. and subsequently challenged with an aerosol of OVA (1% w/v)/FCS (5% v/v) on days 20-28 for 30 minutes. The aerosol exposures were achieved by placing the rodents in a whole body plethysmograph apparatus and then nebulising the […] into the chamber through a port located on the top of the chamber. The aerosol exited the chamber via a bias flow into a particle trap.
Drug treatments were administered to assess the effects of drugs on the development of airway hyperresponsiveness. Drug treatment commenced the day prior (day 19) to the first exposure to OVA (day 20) and continued throughout the period during which the mice were challenged with OVA. Drug treatment comprised 4NO or 2MEO, each at 50 mg/kg administered once daily 2h before OVA exposure to either intraperitoneally or orally in a vehicle of 10% DMSO/90% peanut oil in a volume of 100 μL.
After the 26-28 day sensitisation and challenge protocol, airway obstruction in response to the bronchoconstrictor methacholine was measured. The mice were anaesthetised with a mixture of ketamine/xylazine. A tracheostomy was performed, and a catheter placed in the jugular vein to administer methacholine intravenously. The mouse was then be placed in a whole body plethysmograph and mechanically ventilated (150 breaths/min at a tidal volume of 10 ml/kg). The transpulmonary pressure was measured with a differential pressure transducer with one port attached to the interior of the plethysmograph and the other to the intratracheal cannula. The airflow rate was measured with a pneumotachograph.
The change in airways resistance in response to intravenous methacholine (1-1000 μg/kg, given 4 minutes apart) was calculated on-line with a Buxco pulmonary mechanics analyzer.
The effects of treatment of ovalbumin-challenged mice (veh-OVA) with either 2MEO or 4NO, provided intraperitoneally at 50 mg/kg/day on airway reactivity to intravenously administered methacholine are shown in FIG. 8. Data are expressed as the change in respiratory resistance from the baseline level and are presented as the mean and standard error of the mean.
OVA challenge (veh-OVA) increased the airway reactivity to methacholine compared to that detected in non-challenged mice (veh-SAL).

[6] = tested on: Airway fibroblasts; test: bFGF-induced proliferation of airway fibroblasts from airway biopsies; assay type: cell-based; settings: 3 μM
From the text: Airway fibroblasts were also obtained by explant culture from airway biopsies.

[7] = tested on: NIH3T3 cells; test: Thrombin-induced proliferation of NIH3T3 cells; assay type: cell-based; settings: concentration not given
[8] = tested on: cyclin D1; test: Thrombin-mediated cyclin D1 protein expression in HASM (Western blotting); assay type: cell-based, human; settings: 0.01 μM-1 μM pre-incubation; thrombin 0.3 U/ml, 8 h
Method: Human airway smooth muscle cells were cultured as described above in the proliferation experiments. Cells were serum-deprived for 24 h and stimulated with thrombin (0.3 U/ml) for 8h before harvest of protein for Western Blotting of cyclin D1.

For `COc1cc2c(cc1O)CC[C@@H]1[C@@H]2CC[C@]2(C)[C@@H](O)CC[C@@H]12` [2-methoxyestradiol, reference compound], the “effect on proliferation of MCF7 cells, in words (FIG. 3)” value ([1]; concentration not given) was “effective inhibitor”, the “MCF7 pIC50” value ([1]; proliferation in response to 5% FCS, pIC50 of 4.00 = inactive) was 5.40 and the “effect on proliferation of BAEC, in words (FIG. 4)” value ([2]; concentration not given) was “effective inhibitor”. The “Tubulin affinity (pIC50 ^3H-colchicine displacement)” value [3] was 4.8, the “migration in response to PDGF” value [4] was “significantly reduced levels of migration” and the “airway reactivity to intravenous methacholine (change in respiratory resistance) (FIG. 8)” value [5] was “able to reduce the increase in respiratory resistance”. For the same molecule, the “airway reactivity to intravenous methacholine (change in respiratory resistance) (FIG. 9)” value [5] was “able to reduce the increase in respiratory resistance”.

With `COc1cc2c(cc1O)C(=NOCc1ccc([N+](=O)[O-])cc1)C[C@@H]1[C@@H]2CC[C@]2(C)[C@@H](O)CC[C@@H]12` [CP-DM-2-11-7, 2-methoxy-6-(4-nitrobenzyloxy)iminoestradiol] the “effect on proliferation of MCF7 cells, in words (FIG. 3)” value ([1]; concentrations below 3 μM) was “no detectable effect”, the “effect on proliferation of BAEC, in words (FIG. 4)” value ([2]; concentrations below 3 μM) was “no detectable effect” and the “Tubulin affinity (pIC50 ^3H-colchicine displacement)” value [3] was <4.0. The “reduction of bFGF (300 pM) induced proliferation” value [6] was 55±20%, the “inhibitory effect on thrombin-induced proliferation” value [7] was 26±12% and the “cyclin D1 protein levels” value [8] was “concentration-dependent reduction in the cyclin D1 protein levels”. The “migration in response to PDGF” value [4] was “significantly reduced levels of migration”, the “airway reactivity to intravenous methacholine (change in respiratory resistance) (FIG. 8)” value [5] was “able to reduce the increase in respiratory resistance” and the “airway reactivity to intravenous methacholine (change in respiratory resistance) (FIG. 9)” value [5] was “able to reduce the increase in respiratory resistance”.

In the case of `COc1cc2c(cc1O)C(=NOCc1ccc([N+](=O)[O-])cc1)C[C@@H]1[C@@H]2CC[C@]2(C)C(=NO)CC[C@@H]12` [CP-DM-3-91, 2-methoxy-6-(4-nitrobenzyloxy)iminoestrone-17-oxime], the “reduction of bFGF (300 pM) induced proliferation” value [6] is reported as 50±24% and the “inhibitory effect on thrombin-induced proliferation” value [7] is reported as 68±10%.
